Measurements published in patent US11584742B2 (MASARYKOVA UNIVERZITA, priority 2018, dated 2023).

Tested on: DR-GFP U2OS cells
Test: HR assay (GFP fluorescence after I-SceI transfection, flow cytometry)
Format: cell-based
Conditions: Homo sapiens, inhibitor at 25 μM, 72 hours after transfection
Description: DR-GFP U2OS cells (Methods in Molecular Biology 2012, 920, 379.) were transfected with 2.5 μg of I-SceI-expressing pCAGGS vector and treated with the inhibitors at 25 μM concentration. 72 hours after the transfection, the cells were trypsinized and resuspended in 3% BSA in PBS. GFP fluorescence detection was carried out using a BD FACSVerse flow cytometer and data analyzed with FlowJo software.

Structure (SMILES)	inhibition at 25 µM
CC(C)(C)c1cc(/C=C(\C#N)C(=O)Nc2nc(-c3ccc(OC(F)(F)F)cc3)cs2)cc(C(C)(C)C)c1O [Preparative Example 221]	< 50%
Cc1cc(/C=C(\C#N)C(=O)Nc2nc(-c3ccccc3)cs2)ccc1O [Preparative Example 217, (E)-2-cyano-3-(4-hydroxy-3-methylphenyl)-N-(4-phenylthiazol-2-yl)acrylamide]	50 to 75%
Cc1cc(/C=C(\C#N)C(=O)Nc2nc(-c3ccc(OC(F)(F)F)cc3)cs2)cc(C)c1O [Preparative Example 177, (E)-2-cyano-3-(3,5-dimethyl-4-hydroxyphenyl)-N-(4-(4-(trifluoromethoxy)phenyl)thiazol-2-yl)acrylamide]	> 75%
CC(C)(C)c1cc(/C=C(\C#N)C(=O)Nc2nc(-c3ccccc3)cs2)cc(C(C)(C)C)n1 [Preparative Example 240, (E)-2-cyano-3-(2,6-di-tert-butylpyridin-4-yl)-N-(4-phenylthiazol-2-yl)acrylamide]	> 75%
CC(C)(C)c1cc(/C=C(\C#N)C(=O)Nc2nc(-c3ccccc3)cs2)ccc1O [Preparative Example 235, (E)-3-(3-(tert-butyl)-4-hydroxyphenyl)-2-cyano-N-(4-phenylthiazol-2-yl)acrylamide]	> 75%
N#C/C(=C\c1ccc(O)cc1O)C(=O)Nc1nc(-c2ccccc2)cs1 [Preparative Example 218, (E)-2-cyano-3-(2,4-dihydroxyphenyl)-N-(4-phenylthiazol-2-yl)acrylamide]	50 to 75%
CC(C)c1cc(/C=C(\C#N)C(=O)Nc2nc(-c3ccccc3)cs2)cc(C(C)C)c1O [Preparative Example 237, (E)-2-cyano-3-(4-hydroxy-3,5-diisopropylphenyl)-N-(4-phenylthiazol-2-yl)acrylamide]	> 75%
Cc1cc(/C=C(\C#N)C(=O)Nc2nc(-c3ccccc3)cs2)cc(C(C)(C)C)c1O [Preparative Example 234, (E)-3-(3-(tert-butyl)-4-hydroxy-5-methylphenyl)-2-cyano-N-(4-phenylthiazol-2-yl)acrylamide]	> 75%
